According to patent publication US20040267001A1, “Genes encoding baeyer-villiger monooxygenases” (priority 2001, published 2004):

Columns and labels:
Experiment in all cases: chnB monooxygenase activity assay, NADPH oxidation at 340 nm, purified over-expressed enzyme
Format in all cases: biochemical
[1] = system: Rhodococcus sp. phi1 chnB monooxygenase; conditions: 1.25 mM substrate, pH 7.5; ND = No Activity Detected
Text: (§1) Following amplification, the chnB gene fragments were cloned into pTrcHis-TOPO TA vectors with either an N-terminal tail or C-terminal tail, as provided by the vector sequence (N-terminal tail for Brevibacterium sp. HCU, Rhodococcus sp. phi1, Rhodococcus sp. phi2, and Arthrobacter sp. BP2 monooxygenases; C-terminal tail for Acinetobacter sp. SE19 and Acidovorax sp. CHX monooxygenases). These vectors were transformed into E. coli, with transformants grown in Luria-Bertani broth supplemented with ampicillin (100 ug/ml) and riboflavin (0.1 ug/ml) at 30° C. until the absorbance at 600 nm (A600) reached 0.5. When the A600 was reached, the temperature was shifted to 16° C.
(§2) The encoded monooxygenase sequences were expressed upon addition of IPTG to the culture media, 30 min after the temperature shift to 16° C. The cultures were grown further ovemight (14 hrs) and harvested by centrifugation in a cold centrifuge. The cells were treated with lysozyme (100 mg/ml) for 30 min on ice and sonicated. Following sonication, cell extracts were centrifuged and the supernatant was equilibrated with Ni-NTA resin (Qiagen, Valencia, Calif.) for 1 hr at 4° C. Protein bound resin was washed successively with increasing concentrations of imidazole buffer until the protein of interest was released from the resin. The purified protein was concentrated and the buffer exchanged to remove the imidazole. The protein concentration was adjusted to 1 ug/ml.
(§3) Compounds were selected on the basis of previous observations by van der Werf (J. Biochem. 347:693-701 (2000)) and Miyamoto et al. (Biochimica et Biophysica Acta 1251: 115-124 (1995)) and by searches for the ketone substructure.
(§4) All compounds were obtained from Sigma-Aldrich with only two exceptions. Levoglucosenone was obtained from Toronto Research Chemicals, Inc. and dimethyl-2-piperidone was prepared according to U.S. Pat. No. 6,077,955. For enzyme assays all compounds were dissolved to a concentration of 0.1 M in methanol, with the exceptions of norcamphor (dissolved in ethyl acetate), cyclododecanone, cycltridecanone and cyclopentadecanone (dissolved in propanol), and levoglucosenone (dissolved with acetone).
(§5) The monooxygenase activity of each over-expressed enzyme was assayed spectrophotometrically at 340 nm by monitoring the oxidation of NADPH. Assays were performed in individual quartz cuvettes, with a pathlength of 1 cm. […] An Ultrospec 4000 (Pharmacia Biotech, Cambridge, England) was used to read the absorbance of the samples over a two to ten minute time period and the SWIFT (Pharmacia Biotech) program was used to calculate the slope of the reduction in absorbance over time. For the Brevibactedum sp. […] Monooxygenase activity of each over-expressed enzyme is shown in Table 5, with respect to each ketone substrate. The specific activity values listed are given in umol/min/mg. The notation “ND” refers to “No Activity Detected”.

[2] = system: Arthrobacter sp. BP2 chnB monooxygenase; conditions: 1.25 mM substrate, pH 7.5; ND = No Activity Detected
Text: as §1, §2, §3, §4, §5

[3] = biological target: T1, Acinetobacter sp. SE19 chnB monooxygenase (Acinetobacter sp., UniProt Q9F7E4); conditions: 1.25 mM substrate, pH 7.5; ND = No Activity Detected
T1 construct: isolated full length BVMO genes from Brevibacterium sp; HCU, Acinetobacter SE19; C-terminal tail provided by the pTrcHis-TOPO vector (C); made in house; host or cells: E. coli
Text: as §1, §2, §3, §4, §5

[4] = system: Rhodococcus sp. phi2 chnB monooxygenase; conditions: 1.25 mM substrate, pH 7.5; ND = No Activity Detected
Text: as §1, §2, §3, §4, §5

[5] = system: Acidovorax sp. CHX chnB monooxygenase; conditions: 1.25 mM substrate, pH 7.5; ND = No Activity Detected
Text: as §1, §2, §3, §4, §5

[6] = system: Brevibacterium sp. HCU chnB2 monooxygenase; conditions: 1.25 mM substrate, pH 7.5; rates multiplied by a factor of 3.25 to adjust for decrease in activity due to storage; ND = No Activity Detected
Text: as §1, §2, §3, §4, §5

[7] = system: Brevibacterium sp. HCU chnB1 monooxygenase; conditions: 1.25 mM substrate, pH 7.5; ND = No Activity Detected
Text: as §1, §2, §3, §4, §5

Row | Compound | Specific Activity of Monooxygenase Enzymes Against Various Ketone Substrates, sp. phi1 chnB [1] [µmol/min/mg] | Specific Activity of Monooxygenase Enzymes Against Various Ketone Substrates, sp. BP2 chnB [2] [µmol/min/mg] | Specific Activity of Monooxygenase Enzymes Against Various Ketone Substrates, sp. SE19 chnB [3] [µmol/min/mg] | Specific Activity of Monooxygenase Enzymes Against Various Ketone Substrates, sp. phi2 chnB [4] [µmol/min/mg] | Specific Activity of Monooxygenase Enzymes Against Various Ketone Substrates, sp. CHX chnB [5] [µmol/min/mg] | Specific Activity of Monooxygenase Enzymes Against Various Ketone Substrates, sp. HCU chnB2 [6] [µmol/min/mg] | Specific Activity of Monooxygenase Enzymes Against Various Ketone Substrates, sp. HCU chnB1 [7] [µmol/min/mg]
1 | O=C1CCCCCCC1 [Cyclooctanone] | 0.627 | 0.646 | 1.984 | 0.141 | 0.410 |  | 
2 | O=C1CCCCCCCCCCCCCC1 [Cyclopenta-decanone] | 0.122 | 0.122 | 0.109 |  |  |  | 
3 | O=C1CCCC1 [Cyclopentanone] | 1.370 | 1.491 | 3.034 | 2.451 | 0.621 | 1.331 | 
4 | O=C1CCCCCCCCCCCC1 [Cyclotridecanone] |  | 0.147 | 0.166 | 0.109 |  |  | 
5 | O=C1CCCCCCCCCC1 [Cycloundecanone] |  | 0.064 | 0.064 | 0.051 | 0.058 | 0.125 | 
6 | O=C1C=C[C@H]2CO[C@@H]1O2 [Levoglucosenone] | 0.461 | 0.525 | 1.126 | 0.506 | 0.147 |  | 
7 | OB(O)c1ccccc1 [Phenylboronic acid] |  | 0.192 | 0.102 | 0.109 |  |  | 1.606
8 | CCCCCCC(=O)CCCCCC [dihexyl ketone] | 0.160 |  |  |  |  | 0.270 | 
9 | C[S+](C)[O-] [dimethyl sulfoxide] | 0.518 | 0.422 | 0.819 | 0.544 | 0.358 |  | 0.230
